How the values were obtained:
HSV-1 TK = assay: Substrate screen: phosphorylation of thymidine, TMP, GCV, ACV, dC, AZT by partially purified HSV-1 TKs; format: biochemical, herpes simplex virus type 1; conditions: for Product formation ACVMP: substrate ACV 50 μM; for Product formation AZTMP: substrate AZT 200 μM; for Product formation GCVMP: substrate GCV 50 μM; for Product formation TDP (TMPK activity): substrate TMP 20 μM; for Product formation dCMP: substrate dC 200 μM; for Product formation TMP: substrate thymidine 4 μM
Description: The activity of the purified HSV-1 TK was determined using the following standard reaction mixture for thymidine as a substrate (12): 3 μg of protein, 4 μM [^3H-methyl]thymidine (0.1 mCi/mmol), 20 mM potassium phosphate, pH 7.6, 1 mM DTT, 5 mM ATP, 5 mM MgCl2, 25 mM NaF, 40 mM KCl, and 0.5 mg/ml BSA in a total volume of 25 μl for 10 minutes at 37° C. To identify phosphorylated products, 20 μl of the reaction mixture was loaded onto a DE-81 filter and dried, washed once in 1 mM ammonium formate, twice more in 95% ethanol, and counted for radioactivity (12). Radioactivity was determined using an LKB 1214 Rackbeta liquid scintillation counter and corrected for background using controls with enzyme incubated in the absence of ATP. For TMPK activity, 20 μM [^3H-methyl]TMP was substituted for thymidine in the above assay mixture, and [^3H]TDP product was determined by separation from [^3H]TMP on thin layer PEI-cellulose plates developed in 0.35M LiCl (21). Amount of product converted to TDP was quantitated by scintillation counting of the excised TMP and TDP spots. The filter binding assay was used to quantitate the phosphorylation of [^3H]dC (200) μM and [^3H]AZT (200 μM) with the four enzymes. To compare relative enzymatic activities for [^3H]GCV (50 μM) and [^3H]ACV (50 μM), reactions were loaded onto small DE-52 columns packed in Pasteur pipettes as previously described (22).
As an initial screen for activity, each expressed HSV-1 TK enzyme was assayed for phosphorylation of the following substrates: thymidine (4 μM), TMP (20 μM), ACV (50 μM), GCV (50 μM), deoxycytidine (dC, 200 μM), or 3′-azido-2′,3′dideoxythymidine (AZT, 200 μM). Enzymatic conditions for optimal wild-type HSV-1 TK activities were utilized, thus results presented in Table 1 for each substrate were normalized to 100% values for comparative purposes. As expected, the wild-type Gln-125 HSV-1 TK efficiently phosphorylated each of these substrates. For each mutant, there was a striking decrease in their ability to phosphorylate pyrimidine nucleosides, and minimal TMPK activity for the TMP substrate.

HCT-116 cells = assay: Cell cycle analysis of GCV treated cells (propidium iodide flow cytometry); format: cell-based, human; conditions: +GCV 25 μM, 24 hours, HCT-116 expressing the TK
Description: Parental HCT-116 cells and each HSV-1 TK expressing cell line were grown to 60% confluency in 25 cm^2 flasks and treated for 24 hours minus (−GCV, panels A, C, E and G) or plus (+GCV, panels B, D, F and H) 25 μM GCV. Cells were fixed in 70% ethanol overnight, and later incubated with RNAase (0.1%) and propidium iodide (1 mg/ml) for […] on ice. Flow cytometry measuring propidium iodide fluorescence was done with a Becton-Dickinson FACScalibur instrument using MODFIT computer software. FIGS. 6A and 6B: HCT-116 cells; FIGS. 6C and 6D: wild-type HSV-1 TK cells; FIGS. 6E and 6F: Asn-125TK cells, FIGS. 6G and 6H: Glu-125TK cells.
Parental HCT-116 cells and each HSV-1 TK expressing cell line were grown to 60% confluency in 25 cm^2 flasks and treated for 24 hours plus or minus 25 μM GCV. Following drug incubation, cells were removed by trypsin and total cell numbers determined. Following two phosphate buffered saline rinsing and centrifugation cycles, the cell pellets were resuspended in 1 ml of 70% ethanol and stored at 4° C. until further analysis. Just prior to cell cycle analysis, the ethanol was removed and cell pellets were resuspended in phosphate-buffered saline plus RNAase (0.1%) and propidium iodide (1 mg/ml) for 30 minutes on ice. Flow cytometry measuring propidium iodide fluorescence was done with a Becton-Dickinson FACScalibur instrument. Cell cycle distribution of the cells were determined using MODFIT computer software
GCV has also been previously reported to induce S and G2-M phase cell cycle arrest in HSV-1 TK expressing glioma and melanoma cell lines (36-38). Therefore, the effect of 24 hr GCV treatment on the cell cycling of parental and the three HSV-1 TK-expressing cell lines was examined by flow cytometry of propidium iodide stained cells. As shown in FIGS. 6A and 6B and Table 5, GCV treatment of HCT-116 parental, non-HSV-1 TK-expressing cells had little effect on the percentage of cells in each phase of the cell cycle as compared with untreated cells. In the wild-type and Asn-125TK-expressing cell lines, GCV treatment (FIGS. 6D and 6F) led to an increase in the proportion of cells in the S-phase, and undetectable percentages in G2-M phase when compared to untreated cultures (FIGS. 6C and 6E). For the Glu-125TK-expressing cells, over 50% of the GCV treated cells were in S-phase and less than 3% were in G2-M (FIG. 6H).

Substance	Metabolism of GCV and ACV (in words) (HSV-1 TK; GCV 50 μM, ACV 50 μM)	Product formation ACVMP (HSV-1 TK)	Product formation AZTMP (HSV-1 TK)	Product formation GCVMP (HSV-1 TK)	Product formation TDP (TMPK activity) (HSV-1 TK)	Product formation dCMP (HSV-1 TK)	Product formation TMP (HSV-1 TK)	Cell cycle phase G0/G1 (HCT-116 cells)	Cell cycle phase S (HCT-116 cells)	Cell cycle phase G2/M (HCT-116 cells)	Cell cycle phase G2/M (HCT-116 cells; listed as WTGln-125TK)
Asn-125	retained most of these phosphorylation activities	92 % of wild-type Gln-125	9 % of wild-type Gln-125	85 % of wild-type Gln-125	6 % of wild-type Gln-125	0.2 % of wild-type Gln-125	22 % of wild-type Gln-125	70.0%	30.0%	–	–
Gln-125 (WT): wild-type herpes simplex virus type 1 thymidine kinase with glutamine at position 125, parent enzyme [reference compound]	–	100 % of wild-type Gln-125	100 % of wild-type Gln-125	100 % of wild-type Gln-125	100 % of wild-type Gln-125	100 % of wild-type Gln-125	100 % of wild-type Gln-125	60.1%	39.9%	undetectable	0%
Glu-125	–	7 % of wild-type Gln-125	48 % of wild-type Gln-125	5 % of wild-type Gln-125	7 % of wild-type Gln-125	0.2 % of wild-type Gln-125	43 % of wild-type Gln-125	39.0%	–	–	–

— US6610289B2, “Mutated herpes simplex virus type 1 thymidine kinases and uses thereof” (The Board of Trustees of the University of Arkansas, priority 1998, dated 2003)
